# Like-named read-outs stand apart in the source and are kept apart here.
# Experiments:
# [1] = test system: rejection of concordant hamster to rat cardiac xenografts; assay: hamster to rat concordant cardiac xenograft rejection; format: in vivo, Golden Syrian hamster donor, Lewis (LEW) rat recipient
# Excerpt: The fundamental design of this experiment was to determine a dose response curve using leflunomide as monotherapy, CsA as monotherapy, and both used as combination therapy. End points used to assess efficacy were duration of time to rejection, mortality, histologic differences among the treatment groups, and donor specific antibody responses.
# Male LEW rats weighing approximately 200 grams and male Golden Syrian hamsters weighing approximately 150 grams (Harlan, Sprague, Dawley, Indianapolis, Ind.) were allowed five to ten days of acclimatization before surgery was performed. Ketamine-xylazine anesthesia was used in all animals and food and water were freely allowed post-operatively.
# Heart transplantation was performed according to the technique of Ono et al., Cardiovasc. […] Cardiac xenograft survival was determined by daily palpation, and rejection was considered complete when the impulse was undetectable. CsA, in its intravenous form (Sandimmune, Sandoz Corporation, East Hanover, N.J.) was administered daily by intramuscular injection to the rat hind limbs. Leflunomide (HWA-486, Hoechst AG, Germany) suspended in 1% carboxymethylcellulose was administered by gavage daily. Immunosuppression therapy was started on the day of surgery unless otherwise specified.
# The transplanted animals were assigned to one control group and twelve treatment groups, with dosing at 2.5, 5, 10, 15 and 20 mg/kg of leflunomide, and 10 and 20 mg/kg of CsA. In two groups CsA was kept at 10 mg/kg while leflunomide was dosed at 5 or 10 mg/kg. Three additional treatment groups were included in which leflunomide monotherapy was started seven days before transplantation, or two or three days after transplantation.
# The graft heart was excised after cessation of heart beat. Part of the heart was snap frozen in liquid nitrogen and stored at -70° C.; the remainder was fixed in formalin and stained with hematoxylin and eosin to determine pathological changes. The frozen tissue was stained for IgM and IgG deposition using ABC Technique according to Hsu et al., J. Histochem. Cytochem., 29:577 (1981).
# [2] = test system: rejection of concordant hamster to rat renal xenografts; assay: hamster to rat concordant renal xenograft rejection; format: in vivo, Golden Syrian hamster donor, LEW rat recipient
# Experimental: Like Example 2, this experiment was also designed to determine a dose response curve using leflunomide as monotherapy, CsA as monotherapy, and both used as combination therapy. End points used to assess efficacy were duration of time to rejection, mortality, and histologic differences among the treatment groups.
# Golden Syrian hamsters and LEW rats were maintained as in Example 2, and leflunomide and CsA were administered in the same manner as in Example 2. Renal transplantation was performed using cuffs of aorta and vena cava for vascular anastomosis; the donor ureter bearing a button of bladder was connected to the recipient bladder. Both recipient kidneys were removed at the time of transplantation.
# Leflunomide monotherapy was dosed at 2.5, 5, 10 and 15 mg/kg. CsA monotherapy at 10 mg/kg was given to one group. Two groups were given combination therapy of leflunomide 5 mg/kg with CsA 5 mg/kg, and leflunomide 5 mg/kg with CsA 10 mg/kg. Serum creatinine was measured at 7 days and 21 days. Rejection was defined as death of the animal from uremia with histology consistent with immune-mediated injury.
# At the death of the animal, the kidney graft was removed, fixed in formalin, and stained with hematoxylin and eosin to determine the extent of pathological change. IgG and IgM staining was also done on formalin-fixed tissue, using ABC Technique as for Example 2.
# [3] = test system: cytotoxic antibody; assay: complement-mediated cytotoxicity assay, cardiac xenografts; format: in vivo, rat; conditions: leflunomide therapy
# [4] = test system: tubulointerstitial nephritis; conditions: BN rats, cited from earlier work
# [5] = test system: proteoglycan-induced arthritis; conditions: BALB/c mouse; cited from earlier work
# [6] = test system: IL-2; conditions: cited from earlier work
# [7] = test system: renal allograft; conditions: cited from earlier work
# [8] = test system: heterotopic small intestinal transplantation; conditions: continuous infusion pump, cited from earlier work
# [9] = test system: BN heterotopic heart grafts; conditions: oral 15 mg/kg/day, cited from earlier work
# [10] = test system: intimal thickening of BN orthotopic femoral arterial grafts; conditions: oral 10 mg/kg/day; cited from earlier work
# [11] = test system: xenophile antibodies to human peripheral blood lymphocytes (PBL); conditions: cited from earlier work
# [12] = Lef 15 mg/kg, day began 0, group 5, listed as Lef
# [13] = 2.5 mg/kg or 5 mg/kg leflunomide
# [14] = 10 mg/kg and 15 mg/kg leflunomide
compound,measurement,setting,value
"Cc1oncc1C(=O)Nc1ccc(C(F)(F)F)cc1 [leflunomide, N-(4-trifluoromethylphenyl)-5-methylisoxazol-4-carboxamide]",graft histology,"[1]; 2.5 mg/kg leflunomide, rejected grafts","Interstitial hemorrhage, focal vascular thrombosis and myocardial necrosis with sparse polymorphonuclear cellular infiltration"
same,graft histology,"[1]; 5.0 mg/kg leflunomide, rejected grafts","Interstitial hemorrhage, focal vascular thrombosis and myocardial necrosis with sparse polymorphonuclear cellular infiltration"
same,graft histology,"[1]; 15 mg/kg leflunomide monotherapy, long-term grafts","myocardial fibrosis, moderate mononuclear cell infiltration and arterial thickening, consistent with chronic rejection"
same,Mean Survival ± SD,"[1]; Lef 2.5 mg/kg, day began 0, group 2",5.0 ± 0.6 days
same,Mean Survival ± SD,"[1]; Lef 5 mg/kg, day began 0, group 3",7.7 ± 2.5 days
same,Graft Survival for Each Subject,"[1]; Lef 5 mg/kg, day began 0, group 3, listed as Lef","8,14 days"
same,Mean Survival ± SD,"[1]; Lef 10 mg/kg, day began 0, group 4",52.0 ± 20.2 days
same,Mean Survival ± SD,"[1]; Lef 10 mg/kg, day began +2, group 12",58.0 ± 13.7 days
same,Graft Survival for Each Subject,"[1]; Lef 10 mg/kg, day began +2, group 12, listed as Lef","76,77 days"
same,Mean Survival ± SD,"[1]; Lef 10 mg/kg, day began +3, group 13",3.7 ± 0.5 days
same,Mean Survival ± SD,"[1]; Lef 10 mg/kg, day began -7, group 11",64.0 ± 13.3 days
same,Mean Survival ± SD,"[1]; Lef 15 mg/kg, day began 0, group 5",76.5 ± 21 days
same,Graft Survival for Each Subject,[1]; [12],"100,105 days"
same,Mean Survival ± SD,[1]; [12],76.5 ± 21.1 days
same,Mean Survival ± SD,"[1]; Lef 20 mg/kg, day began 0, group 6",58.9 ± 28.1 days
same,Graft Survival for Each Subject,"[1]; Lef 20 mg/kg, day began 0, group 6, listed as Lef",100 days
same,time to rejection of the graft,"[1]; initiation of leflunomide delayed until day 3, all animals",≤ 24 h
same,toxicity,[1]; leflunomide 20 mg/kg,lethal toxicity appeared
same,optimal dose,[1]; leflunomide monotherapy,15 mg/kg
same,control of xenograft rejection,"[1]; leflunomide monotherapy, high doses causing toxicity",unable to totally control xenograft rejection
same,minimal effective dose,"[1]; leflunomide monotherapy, read-out: dose at which graft survival exceeded that of untreated controls",10 mg/kg
same,effect of start time on length of graft survival,[1]; leflunomide started seven days before or two days after transplantation,no significant effect on length of graft survival
same,effect on survival,[2]; [13],did not significantly increase survival time
same,histopathology,[2]; [13],did not significantly alter histopathology compared to controls
same,mean serum creatinine values vs controls,[2]; [13],slightly reduced
same,effect on survival,[2]; [14],statistically significant improvement in survival
same,histology,[2]; [14],the histology did not show significant rejection
same,Mean Creatinine Day 7,"[2]; Lef 2.5 mg/kg, group 2",3.6
same,Mean Survival ± S.D.,"[2]; Lef 2.5 mg/kg, group 2",8.5 ± 2.1
same,Mean Creatinine Day 7,"[2]; Lef 5.0 mg/kg, group 3",2.7
same,Mean Survival ± S.D.,"[2]; Lef 5.0 mg/kg, group 3",7.0 ± 2.6
same,Mean Creatinine Day 7,"[2]; Lef 10 mg/kg, group 4",1.6
same,Mean Survival ± S.D.,"[2]; Lef 10 mg/kg, group 4",17.0 ± 8.9
same,Mean Creatinine Day 7,"[2]; Lef 15 mg/kg, group 5",1.2
same,Mean Survival ± S.D.,"[2]; Lef 15 mg/kg, group 5",13.2 ± 7.1
same,Graft Survival for Each Subject,"[2]; Lef 15 mg/kg, group 5, listed as Lef","17,24"
same,terminal serum creatinine,"[2]; appropriate dose of leflunomide, most of the animals",less than 2.5
same,cytotoxic antibody titres,[3],prevented or reversed the cytotoxic antibody titres
same,prevention of tubulointerstitial nephritis,[4],very effective
same,reduction of incidence of auto-antibody formation,[4],much more effective than any of the other drugs in reducing the incidence of auto-antibody formation
same,prevention of tubulointerstitial nephritis,[4]; listed as Leflunomide,"as effective as Cyclosporine A, and was more effective than prednisolone, naproxen or indomethacin in preventing disease development"
same,effect on arthritis,[5],suppresses acute inflammation and protects animals from new inflammatory episodes or acute exacerbation of chronically inflamed joints
same,inhibition of production of IL-2,[6],only partially inhibits the production of IL-2
same,survival,[7]; 5 or 10 mg/kg/day by gavage for 30 days,more than 60 days
same,protection,[7]; BN-LEW renal transplant,very similar to the protection attainable with CsA treatment
same,survival of recipients,[8]; 7 days,29.3 ± 13.8 days
same,survival of recipients,[8]; 14 days,38.8 ± 11.5 days
same,graft vascular disease,[9]; day 50,had no graft vascular disease
same,antibodies directed against BN grafts in sera,[9],contained no antibodies directed against the BN grafts
same,intimal thickening,[10],reduced intimal thickening compared to untreated controls
same,"pre-existing, natural xenophile antibodies",[11]; 10 mg/kg/day for 10 days,"decrease in pre-existing, natural xenophile antibodies"
same,xenophile antibody production,"[11]; 3 or 10 mg/kg/day from day -4 to day +10, sensitized rats",inhibited xenophile antibody production in a dose-dependent manner

# From patent US5688824A, “Use of leflunomide to prevent or control xenograft rejection” (priority 1996, dated 1997)
